Converted amounts (≈) assume the structure as drawn.
Tests used:
[1] = system: Staphylococcus aureus; experiment: Antibacterial activity against Staphylococcus aureus ATCC 6538 after 24 hrs by broth microdilution method; type: functional; details: ATCC 6538, 24 h
[2] = system: Staphylococcus aureus; experiment: Antibacterial activity against methicillin-resistant Staphylococcus aureus H 5996/08 after 24 hrs by broth microdilution method; type: functional; details: H 5996/08, 24 h
[3] = system: Staphylococcus epidermidis; experiment: Antibacterial activity against Staphylococcus epidermidis H 6966/08 after 24 hrs by broth microdilution method; type: functional; details: H 6966/08, 24 h
[4] = system: Enterococcus faecalis; experiment: Antibacterial activity against Enterococcus faecalis J 14365/08 after 24 hrs by broth microdilution method; type: functional; details: J 14365/08, 24 h
[5] = system: Candida albicans; experiment: Antifungal activity against Candida albicans ATCC 44859 after 24 hrs by broth microdilution method; type: functional; details: ATCC 44859, 24 h
[6] = system: Candida tropicalis; experiment: Antifungal activity against Candida tropicalis 156 after 24 hrs by broth microdilution method; type: functional; details: Candida tropicalis, 156, 24 h
[7] = system: Pichia kudriavzevii; experiment: Antifungal activity against Candida krusei E28 after 24 hrs by broth microdilution method; type: functional; details: E28, 24 h
[8] = system: Nakaseomyces glabratus; experiment: Antifungal activity against Candida glabrata 20/I after 24 hrs by broth microdilution method; type: functional
[9] = system: Trichosporon asahii; experiment: Antifungal activity against Trichosporon asahii 1188 after 24 hrs by broth microdilution method; type: functional; details: Trichosporon asahii, 1188, 24 h
[10] = system: Aspergillus fumigatus; experiment: Antifungal activity against Aspergillus fumigatus 231 after 24 hrs by broth microdilution method; type: functional, organism-based; details: Aspergillus fumigatus, 231, 24 h
[11] = system: Lichtheimia corymbifera; experiment: Antifungal activity against Absidia corymbifera 272 after 24 hrs by broth microdilution method; type: functional, organism-based; details: Lichtheimia corymbifera, 272, 24 h
[12] = system: Trichophyton mentagrophytes; experiment: Antifungal activity against Trichophyton mentagrophytes 445 after 72 hrs by broth microdilution method; type: functional, organism-based; details: Trichophyton mentagrophytes, 445, 72 h
[13] = Cytotoxicity against human HeLa cells assessed as cell viability at 30 uM after 48 hrs by MTT assay; type: cell-based; details: read-out: Activity
[14] = Cytotoxicity against human HuH7 cells assessed as cell viability at 30 uM after 48 hrs by MTT assay; type: cell-based, Huh-7; details: read-out: Activity
[15] = Cytotoxicity against human HepG2 cells assessed as cell viability at 30 uM after 48 hrs by MTT assay; type: cell-based; details: read-out: Activity
[16] = Cytotoxicity against MDCK2 cells assessed as cell viability at 30 uM after 48 hrs by MTT assay; type: cell-based, Canis lupus familiaris, MDCK-II; details: dog, read-out: Activity
[17] = system: HeLa; experiment: Cytotoxicity against human HeLa cells assessed as reduction in cell viability after 48 hrs by MTT assay; type: cell-based
[18] = Cytotoxicity against human HuH7 cells assessed as reduction in cell viability after 48 hrs by MTT assay; type: cell-based; details: Huh-7, 48 h
[19] = Cytotoxicity against MDCK2 cells assessed as reduction in cell viability after 48 hrs by MTT assay; type: cell-based; details: Canis lupus familiaris, MDCK-II
[20] = system: HepG2; experiment: Cytotoxicity against human HepG2 cells assessed as reduction in cell viability after 48 hrs by MTT assay; type: cell-based; details: HepG2, 48 h
[21] = system: Mycobacterium tuberculosis; experiment: Antimycobacterial activity against Mycobacterium tuberculosis CNCTC My 331/88 after 14 days by micromethod; type: functional; details: CNCTC My 331/88, 336 h
[22] = system: Mycobacterium tuberculosis; experiment: Antimycobacterial activity against Mycobacterium tuberculosis CNCTC My 331/88 after 21 days by micromethod; type: functional; details: CNCTC My 331/88, 504 h
[23] = system: Mycobacterium avium; experiment: Antimycobacterial activity against Mycobacterium avium CNCTC My 330/88 after 14 days by micromethod; type: functional; details: CNCTC My 330/88, 336 h
[24] = system: Mycobacterium avium; experiment: Antimycobacterial activity against Mycobacterium avium CNCTC My 330/88 after 21 days by micromethod; type: functional; details: CNCTC My 330/88, 504 h
[25] = system: Mycobacterium kansasii; experiment: Antimycobacterial activity against Mycobacterium kansasii CNCTC My 235/80 after 7 days by micromethod; type: functional; details: CNCTC My 235/80, 168 h
[26] = system: Mycobacterium kansasii; experiment: Antimycobacterial activity against Mycobacterium kansasii CNCTC My 235/80 after 14 days by micromethod; type: functional; details: CNCTC My 235/80, 336 h
[27] = system: Mycobacterium kansasii; experiment: Antimycobacterial activity against Mycobacterium kansasii CNCTC My 235/80 after 21 days by micromethod; type: functional; details: CNCTC My 235/80, 504 h
[28] = system: Mycobacterium kansasii; experiment: Antimycobacterial activity against Mycobacterium kansasii 6509/96 after 7 days by micromethod; type: functional; details: 6509/96, 168 h
[29] = system: Mycobacterium kansasii; experiment: Antimycobacterial activity against Mycobacterium kansasii 6509/96 after 14 days by micromethod; type: functional; details: 6509/96, 336 h
[30] = system: Mycobacterium kansasii; experiment: Antimycobacterial activity against Mycobacterium kansasii 6509/96 after 21 days by micromethod; type: functional; details: 6509/96, 504 h

Structure (SMILES)	MIC [21] [µM]	MIC [22] [µM]	MIC [23] [µM]	MIC [24] [µM]	MIC [25] [µM]	MIC [26] [µM]	MIC [27] [µM]	MIC [28] [µM]	MIC [29] [µM]	MIC [30] [µM]	further results
CN[C@H](CC(C)C)C(=O)N[C@H]1C(=O)N[C@@H](CC(N)=O)C(=O)N[C@H]2C(=O)N[C@H]3C(=O)N[C@H](C(=O)N[C@H](C(=O)O)c4cc(O)cc(O)c4-c4cc3ccc4O)[C@H](O)c3ccc(c(Cl)c3)Oc3cc2cc(c3O[C@@H]2O[C@H](CO)[C@@H](O)[C@H](O)[C@H]2O[C@H]2C[C@](C)(N)[C@H](O)[C@H](C)O2)Oc2ccc(cc2Cl)[C@H]1O [VANCOMYCIN]	–	–	–	–	–	–	–	–	–	–	IC95 [1]: 350 nM; IC95 [2]: 350 nM; IC95 [3]: 350 nM; IC95 [4]: 700 nM
C[C@@H]1[C@H](O)[C@@H](C)/C=C/C=C/C=C/C=C/C=C/C=C/C=C/[C@H](O[C@@H]2O[C@H](C)[C@@H](O)[C@H](N)[C@@H]2O)C[C@@H]2O[C@](O)(C[C@@H](O)C[C@@H](O)[C@H](O)CC[C@@H](O)C[C@@H](O)CC(=O)O[C@H]1C)C[C@H](O)[C@H]2C(=O)O [AMPHOTERICIN B]	–	–	–	–	–	–	–	–	–	–	IC80 [5]: 540 nM; IC80 [6]: 540 nM; IC80 [7]: 1000 nM; IC80 [8]: 540 nM; IC80 [9]: 270 nM; IC50 [10]: 540 nM; IC50 [11]: 1000 nM; IC50 [12]: 540 nM
O=[N+]([O-])c1cc(CS(=O)(=O)c2nnnn2C2CCCCC2)cc([N+](=O)[O-])c1	2 (≈ 0.793 µg/mL)	4 (≈ 1.59 µg/mL)	32 (≈ 12.7 µg/mL)	62 (≈ 24.6 µg/mL)	8 (≈ 3.17 µg/mL)	16 (≈ 6.34 µg/mL)	16 (≈ 6.34 µg/mL)	8 (≈ 3.17 µg/mL)	16 (≈ 6.34 µg/mL)	16 (≈ 6.34 µg/mL)	viability at 48 h, 30 µM [13]: 22%; viability at 48 h, 30 µM [14]: 43%; viability at 48 h, 30 µM [15]: 10%; viability at 48 h, 30 µM [16]: 18%; IC50 [17]: 21000 nM; IC50 [18]: 28000 nM; IC50 [19]: < 7500 nM; IC50 [20]: 9000 nM
COc1ccc(-n2nnnc2SCc2cc([N+](=O)[O-])cc([N+](=O)[O-])c2)cc1	2 (≈ 0.777 µg/mL)	4 (≈ 1.55 µg/mL)	16 (≈ 6.21 µg/mL)	32 (≈ 12.4 µg/mL)	1 (≈ 0.388 µg/mL)	4 (≈ 1.55 µg/mL)	4 (≈ 1.55 µg/mL)	1 (≈ 0.388 µg/mL)	1 (≈ 0.388 µg/mL)	2 (≈ 0.777 µg/mL)	viability at 48 h, 30 µM [13]: 39%; viability at 48 h, 30 µM [14]: 86%; viability at 48 h, 30 µM [15]: 90%; viability at 48 h, 30 µM [16]: 123%; IC50 [18]: > 30000 nM; IC50 [19]: > 30000 nM; IC50 [20]: > 30000 nM
O=[N+]([O-])c1cc(CSc2nnnn2C23CC4CC(CC(C4)C2)C3)cc([N+](=O)[O-])c1	4 (≈ 1.67 µg/mL)	4 (≈ 1.67 µg/mL)	500 (≈ 208 µg/mL)	500 (≈ 208 µg/mL)	4 (≈ 1.67 µg/mL)	8 (≈ 3.33 µg/mL)	16 (≈ 6.66 µg/mL)	8 (≈ 3.33 µg/mL)	8 (≈ 3.33 µg/mL)	8 (≈ 3.33 µg/mL)	–
COc1cccc(-n2nnnc2SCc2cc([N+](=O)[O-])cc([N+](=O)[O-])c2)c1	2 (≈ 0.777 µg/mL)	4 (≈ 1.55 µg/mL)	125 (≈ 48.5 µg/mL)	125 (≈ 48.5 µg/mL)	125 (≈ 48.5 µg/mL)	125 (≈ 48.5 µg/mL)	125 (≈ 48.5 µg/mL)	125 (≈ 48.5 µg/mL)	125 (≈ 48.5 µg/mL)	125 (≈ 48.5 µg/mL)	–
CCCCCCn1nnnc1SCc1cc([N+](=O)[O-])cc([N+](=O)[O-])c1	1 (≈ 0.366 µg/mL)	2 (≈ 0.733 µg/mL)	32 (≈ 11.7 µg/mL)	62 (≈ 22.7 µg/mL)	2 (≈ 0.733 µg/mL)	4 (≈ 1.47 µg/mL)	8 (≈ 2.93 µg/mL)	2 (≈ 0.733 µg/mL)	4 (≈ 1.47 µg/mL)	8 (≈ 2.93 µg/mL)	–

— ChEMBL document CHEMBL3297661, “1-Substituted-5-[(3,5-dinitrobenzyl)sulfanyl]-1H-tetrazoles and their isosteric analogs: A new class of selective antitubercular agents active against drug-susceptible and multidrug-resistant mycobacteria” (Eur J Med Chem, 2014)
